One may read the IC50 as the concentration that inhibits the measured activity by half.

Data set [1] relates to eHSP90α—TLR4 ligation. The note with it: Chua et al., Cells 2020; cited from earlier work.
The test system of data set [2] is PANC-1 plus EndoMT cell grafts. Briefly: Therapeutic efficacy in desmoplastic humanized mouse PDAC transplant model. In kind it is in vivo. The note with it: hHSC-transplanted ASID mice; antibody 5 mg/kg x3, gemcitabine 100 mg/kg x2, IV.
The test system of data set [3] is PANC-1 cells. In words: Cell spheroid-forming assay, rHSP90α-induced PANC-1 spheroids. The class given is cell-based, human. Particulars: 15 μg/ml rHSP90α plus 15 μg/ml peptide. As for the experimental part:
One thousand cancer cells were seeded onto each well of 24-well plates pre-coated with a 4-mm thick layer of 0.5% agarose. After incubation 24 h with serum-free medium at 37° C. plus a 5% CO2 humidified atmosphere, cells were added with PBS or 15 μg/ml of rHSP90α in the absence or presence of 10 μg/ml of control IgG or the tested anti-HSP90α antibody. The incubation was kept for 10-14 days with supplements of some fresh serum-free medium every 3 days. Finally, the cell spheroids characterized by tight, non-adherent, and >100 μm in diameter were photographed and counted under an Olympus IX 71 inverted microscope (Center Valley, PA, USA). The spheroid formation % was calculated by the formula: (number of cell spheroids/1000)×100%.

Data set [4] deals with PANC-1 cells. Briefly: Transwell invasion assay, rHSP90α-induced PANC-1 invasion. In kind it is cell-based, human. The note with it: 15 μg/ml rHSP90α plus 15 μg/ml peptide. As for the experimental part:
In a 37° C. and 5% CO2 humidified incubator, cancer cells were subjected to serum starvation in 0.5% FBS-containing medium for 16 h, and then added […] After another 24 h, the treated cells were harvested as aliquots (1×10^5 cells per aliquot) in 0.5% FBS-containing culture medium, and then each aliquot was seeded into a top chamber of Transwell inserts pre-coated with 5-fold diluted Matrigel (BD Biosciences). Cells were allowed 16 h to invade through the Matrigel toward the bottom chambers containing culture medium plus 10% FBS. The filters of the Transwell inserts were then fixed and stained with Giemsa. Invasive cells on the lower side of filters were photographed using the Axiovert S100/AxioCam HR microscope system (Carl Zeiss, Oberkochen, Germany) and further quantified by the Image-Pro Plus software (Media Cybernetics, Inc., Silver Spring, MD, USA).

Data set [5] deals with ARPE-19 retinal pigmented epithelial cells. In words: Retinal cell toxicity assay (MTS). The note with it: 72-h treatment, MTS; read-out: IC50 of cytotoxicity to ARPE-19 cells. In kind it is cell-based, human. As for the experimental part:
ARPE-19 cells were seeded onto 96-well plates at a density of 4000 cells per well, and then treated in triplicate with various concentrations of 17-AAG or anti-HSP90α antibody HH01 for 72 h. The 3-(4,5-dimethylthiazol-2-yl)-5-(3-carboxymethoxyphenyl)-2-(4-sulfophenyl)-2H-tetrazolium (MTS; Sigma-Aldrich) assay was employed and OD490 was measured to evaluate cell viability upon each treatment.

Turning to `CCCCCCCCOC(=O)c1cc(O)c(O)c(O)c1` [Octyl gallate], the “effect on EndoMT-derived CAFs and eHSP90α-induced macrophage M2-polarization and HSP90α expression” value in data set [1] is reported as “inhibitory effect”.
Regarding `Nc1ccn([C@@H]2O[C@H](CO)[C@@H](O)C2(F)F)c(=O)n1` [gemcitabine], the tumor growth curves entry in data set [2] is recorded as “significantly repressed tumors after the second administration of gemcitabine”.
On to “peptide with a sequence of the a.a. 227-272 region of HSP90α: synthesized epitopes-containing peptide with the sequence of a.a. 227-272 of HSP90α (DKEVSDDEAEEKEDKEEEKEKEEKESEDKPEIEDVGSDEEEEKKDG; UniProt P07900 227-272, looked up, fragment)”, for which, in data set [3], the “rHSP90α-induced PANC-1 spheroid formation” value was “competitively suppressed”. Moreover, the “rHSP90α-induced PANC-1 cell invasion” value in data set [4] is “competitively suppressed”.
Regarding `C=CCNC1=C2C[C@@H](C)C[C@H](OC)[C@H](O)[C@@H](C)/C=C(\C)[C@H](OC(N)=O)[C@@H](OC)/C=C\C=C(/C)C(=O)NC(=CC1=O)C2=O` [Clone 17-AAG, 17-AAG, reference compound], the IC50 in data set [5] was found to be 64.7 nM.

The values are drawn from patent US20250333486A1, “Anti-HSP90 alpha antibody and uses thereof” (NATIONAL HEALTH RESEARCH INSTITUTES, priority 2021, published 2025).
